Here are results for six compounds from patent US11725037B2, “Peptide dual agonists of GIPR and GLP2R” (University of Copenhagen, priority 2017, dated 2023).

Assay [1] concerns the target T1, human GIP receptor (Homo sapiens, UniProt P48546).
T1 construct: host or cells: COS-7 (transient, calcium phosphate; pCMV-Script vector)
T1 sequence (P48546 22-466): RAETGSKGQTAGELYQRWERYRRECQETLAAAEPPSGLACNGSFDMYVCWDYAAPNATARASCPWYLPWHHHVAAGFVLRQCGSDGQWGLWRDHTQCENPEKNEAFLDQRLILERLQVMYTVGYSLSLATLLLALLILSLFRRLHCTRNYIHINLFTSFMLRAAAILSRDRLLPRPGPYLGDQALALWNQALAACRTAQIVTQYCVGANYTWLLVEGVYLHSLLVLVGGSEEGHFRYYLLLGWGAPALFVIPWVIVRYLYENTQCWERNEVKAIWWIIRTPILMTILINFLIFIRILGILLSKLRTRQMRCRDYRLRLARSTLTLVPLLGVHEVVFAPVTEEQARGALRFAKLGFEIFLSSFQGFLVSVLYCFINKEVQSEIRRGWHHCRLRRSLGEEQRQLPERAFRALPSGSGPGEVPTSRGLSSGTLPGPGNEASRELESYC
In words: cAMP accumulation assay (HitHunter cAMP XS) in transiently transfected COS-7 cells expressing the human GIP receptor. The format is cell-based. Particulars: for Emax at 10 µM: COS-7, read-out: Emax (10 μM), GIP receptor; for EC50 / fold (fold change of native GIP), GIP receptor: Table 2; for EC50: cAMP, COS-7; for fold (fold change of native GIP), GIP receptor: EC50 relative to native GIP. As for the experimental part: (§1) The day after, the cells were washed twice with Hepes buffered saline (HBS) buffer and incubated with HBS and 1 mM 3-isobutyl-1-methylxanthine (IBMX) for 30 min at 37° C. Ligands were added and incubated for 30 min at 37° C. The HitHunter™ cAMP XS assay (DiscoveRx) was carried out according to the manufacturer's instructions.
In general terms: Cyclic AMP is a second messenger, typically raised through Gs and lowered through Gi signalling.

For assay [2], the target named is T2, human GLP-2 receptor (Homo sapiens, UniProt O95838).
T2 construct: host or cells: COS-7 (transient, calcium phosphate; pCMV-Script vector)
T2 sequence (O95838 1-553): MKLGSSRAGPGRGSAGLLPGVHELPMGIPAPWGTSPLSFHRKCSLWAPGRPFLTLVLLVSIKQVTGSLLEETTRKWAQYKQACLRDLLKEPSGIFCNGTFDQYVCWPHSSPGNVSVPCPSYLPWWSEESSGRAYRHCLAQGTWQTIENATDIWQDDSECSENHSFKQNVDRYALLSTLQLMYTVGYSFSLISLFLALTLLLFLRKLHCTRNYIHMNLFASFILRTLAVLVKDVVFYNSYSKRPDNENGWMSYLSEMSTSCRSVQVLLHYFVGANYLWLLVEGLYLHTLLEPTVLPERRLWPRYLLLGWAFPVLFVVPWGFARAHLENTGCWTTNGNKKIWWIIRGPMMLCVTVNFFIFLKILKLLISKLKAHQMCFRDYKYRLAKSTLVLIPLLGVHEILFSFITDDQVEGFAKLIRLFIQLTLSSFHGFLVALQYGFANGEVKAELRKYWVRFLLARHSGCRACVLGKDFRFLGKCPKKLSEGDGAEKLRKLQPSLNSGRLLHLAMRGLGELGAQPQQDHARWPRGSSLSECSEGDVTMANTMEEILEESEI
As to the kind of experiment: cAMP accumulation assay (HitHunter cAMP XS) in transiently transfected COS-7 cells expressing the human GLP-2 receptor. In kind it is cell-based. Particulars: for Emax at 10 µM: COS-7, read-out: Emax (10 μM), GLP-2 receptor; for EC50 / fold (fold change of native GLP-2), GLP-2 receptor: Table 2; for EC50: cAMP, COS-7; for fold (fold change of native GLP-2), GLP-2 receptor: EC50 relative to native GLP-2. The method, then:
as §1

The mark [3] stands for this setting: logEC50, GIP receptor, log value.

For orientation: Emax means the greatest response seen or fitted, relative to the assay's reference. Broadly, the EC50 is the concentration at which the effect is half-maximal.

As to `CCCCCCCCCCCCCCCC(=O)N[C@@H](Cc1c[nH]cn1)C(=O)N[C@@H](C)C(=O)N[C@@H](CC(=O)O)C(=O)NCC(=O)N[C@H](C(=O)N[C@@H](Cc1ccccc1)C(=O)N[C@H](C(=O)N[C@@H](CO)C(=O)N[C@@H](CC(=O)O)C(=O)N[C@@H](Cc1ccc(O)cc1)C(=O)N[C@@H](CO)C(=O)N[C@H](C(=O)N[C@H](C(=O)N[C@@H](CC(C)C)C(=O)N[C@@H](CC(=O)O)C(=O)N[C@@H](CC(N)=O)C(=O)N[C@@H](CC(C)C)C(=O)N[C@@H](C)C(=O)N[C@@H](C)C(=O)N[C@@H](CCCNC(=N)N)C(=O)N[C@@H](CC(=O)O)C(=O)N[C@@H](Cc1ccccc1)C(=O)N[C@H](C(=O)N[C@@H](CC(N)=O)C(=O)N[C@@H](Cc1c[nH]c2ccccc12)C(=O)N[C@@H](CC(C)C)C(=O)N[C@H](C(=O)N[C@@H](CCC(N)=O)C(=O)N[C@H](C(=O)N[C@@H](CCCCN)C(=O)N[C@H](C(=O)N[C@H](C(=O)N[C@@H](CCCCN)C(=O)O)[C@@H](C)O)[C@@H](C)CC)[C@@H](C)O)[C@@H](C)CC)[C@@H](C)CC)[C@@H](C)CC)[C@@H](C)O)[C@@H](C)CC)[C@@H](C)O` [Co-agonist 29], the maximum response (Emax) at 10 µM was 115% in assay [1] and 82% in assay [2]. Besides, the EC50 is 1.82 nM in assay [1] (EC50(nM), GIP receptor); 1.82 nM in assay [1] (setting [3]); 17.4 nM in assay [2] (logEC50, GLP-2 receptor).

For the compound `CCCCCCCCCCCC(=O)NCCCC[C@H](NC(=O)[C@@H](NC(=O)[C@H](CCC(N)=O)NC(=O)[C@@H](NC(=O)[C@H](CC(C)C)NC(=O)[C@H](Cc1c[nH]c2ccccc12)NC(=O)[C@H](CC(N)=O)NC(=O)[C@@H](NC(=O)[C@H](Cc1ccccc1)NC(=O)[C@H](CC(=O)O)NC(=O)[C@H](CCCNC(=N)N)NC(=O)[C@H](C)NC(=O)[C@H](C)NC(=O)[C@H](CC(C)C)NC(=O)[C@H](CC(N)=O)NC(=O)[C@H](CC(=O)O)NC(=O)[C@H](CC(C)C)NC(=O)[C@@H](NC(=O)[C@@H](NC(=O)[C@H](CO)NC(=O)[C@H](Cc1ccc(O)cc1)NC(=O)[C@H](CC(=O)O)NC(=O)[C@H](CO)NC(=O)[C@@H](NC(=O)[C@H](Cc1ccccc1)NC(=O)[C@@H](NC(=O)CNC(=O)[C@H](CC(=O)O)NC(=O)[C@H](C)NC(=O)[C@@H](N)Cc1c[nH]cn1)[C@@H](C)O)[C@@H](C)CC)[C@@H](C)O)[C@@H](C)CC)[C@@H](C)CC)[C@@H](C)CC)[C@@H](C)O)C(=O)N[C@H](C(=O)N[C@H](C(=O)N[C@@H](CCCCN)C(=O)O)[C@@H](C)O)[C@@H](C)CC` [Co-agonist 30], in assay [1], the Emax at 10 µM is 100% and the “fold (fold change of native GIP), GIP receptor” value (“fold (fold change of native GIP)” below) was found to be 7.1 fold. In addition, in assay [2], the maximal effect (Emax) at 10 µM is 73% and the “fold (fold change of native GLP-2), GLP-2 receptor” value stood at 30 fold. This compound also showed an EC50 in assay [2] (logEC50, GLP-2 receptor) of 36.3 nM.

Turning to `CCCCCCCCCCCCCCCC(=O)NCCCC[C@H](NC(=O)[C@@H](NC(=O)[C@H](CCC(N)=O)NC(=O)[C@@H](NC(=O)[C@H](CC(C)C)NC(=O)[C@H](Cc1c[nH]c2ccccc12)NC(=O)[C@H](CC(N)=O)NC(=O)[C@@H](NC(=O)[C@H](Cc1ccccc1)NC(=O)[C@H](CC(=O)O)NC(=O)[C@H](CCCNC(=N)N)NC(=O)[C@H](C)NC(=O)[C@H](C)NC(=O)[C@H](CC(C)C)NC(=O)[C@H](CC(N)=O)NC(=O)[C@H](CC(=O)O)NC(=O)[C@H](CC(C)C)NC(=O)[C@@H](NC(=O)[C@@H](NC(=O)[C@H](CO)NC(=O)[C@H](Cc1ccc(O)cc1)NC(=O)[C@H](CC(=O)O)NC(=O)[C@H](CO)NC(=O)[C@@H](NC(=O)[C@H](Cc1ccccc1)NC(=O)[C@@H](NC(=O)CNC(=O)[C@H](CC(=O)O)NC(=O)[C@H](C)NC(=O)[C@@H](N)Cc1c[nH]cn1)[C@@H](C)O)[C@@H](C)CC)[C@@H](C)O)[C@@H](C)CC)[C@@H](C)CC)[C@@H](C)CC)[C@@H](C)O)C(=O)N[C@H](C(=O)N[C@H](C(=O)N[C@@H](CCCCN)C(=O)O)[C@@H](C)O)[C@@H](C)CC` [Co-agonist 31], in assay [1], the Emax at 10 µM was 91% and the “fold (fold change of native GIP)” value is on record as 19 fold. In assay [2], the maximal effect (Emax) at 10 µM was 91% and the “fold (fold change of native GLP-2), GLP-2 receptor” value is recorded as 89 fold.

`CCCCCCCCCCCC(=O)NCCCC[C@H](NC(=O)[C@@H](NC(=O)[C@@H](NC(=O)[C@H](CCCCN)NC(=O)[C@@H](NC(=O)[C@H](CCC(N)=O)NC(=O)[C@@H](NC(=O)[C@H](CC(C)C)NC(=O)[C@H](Cc1c[nH]c2ccccc12)NC(=O)[C@H](CC(N)=O)NC(=O)[C@@H](NC(=O)[C@H](Cc1ccccc1)NC(=O)[C@H](CC(=O)O)NC(=O)[C@H](CCCNC(=N)N)NC(=O)[C@H](C)NC(=O)[C@H](C)NC(=O)[C@H](CC(C)C)NC(=O)[C@H](CC(N)=O)NC(=O)[C@H](CC(=O)O)NC(=O)[C@H](CC(C)C)NC(=O)[C@@H](NC(=O)[C@@H](NC(=O)[C@H](CO)NC(=O)[C@H](Cc1ccc(O)cc1)NC(=O)[C@H](CC(=O)O)NC(=O)[C@H](CO)NC(=O)[C@@H](NC(=O)[C@H](Cc1ccccc1)NC(=O)[C@@H](NC(=O)CNC(=O)[C@H](CC(=O)O)NC(=O)[C@H](C)NC(=O)[C@@H](N)Cc1c[nH]cn1)[C@@H](C)O)[C@@H](C)CC)[C@@H](C)O)[C@@H](C)CC)[C@@H](C)CC)[C@@H](C)CC)[C@@H](C)O)[C@@H](C)CC)[C@@H](C)O)C(=O)O` [Co-agonist 32]: in assay [1], the Emax at 10 µM was determined as 100% and the “fold (fold change of native GIP)” value amounted to 1.7 fold. Moreover, the response in assay [1] (setting [3]) was half-maximal at 0.155 nM (EC50). Moreover, in assay [2], the Emax at 10 µM turned out to be 91% and the “fold (fold change of native GLP-2), GLP-2 receptor” value was 5.1 fold. For the same compound, the response in assay [2] (EC50(nM), GLP-2 receptor) was half-maximal at 6.2 nM (EC50).

For `CCCCCCCCCCCCCCCC(=O)NCCCC[C@H](NC(=O)[C@@H](NC(=O)[C@@H](NC(=O)[C@H](CCCCN)NC(=O)[C@@H](NC(=O)[C@H](CCC(N)=O)NC(=O)[C@@H](NC(=O)[C@H](CC(C)C)NC(=O)[C@H](Cc1c[nH]c2ccccc12)NC(=O)[C@H](CC(N)=O)NC(=O)[C@@H](NC(=O)[C@H](Cc1ccccc1)NC(=O)[C@H](CC(=O)O)NC(=O)[C@H](CCCNC(=N)N)NC(=O)[C@H](C)NC(=O)[C@H](C)NC(=O)[C@H](CC(C)C)NC(=O)[C@H](CC(N)=O)NC(=O)[C@H](CC(=O)O)NC(=O)[C@H](CC(C)C)NC(=O)[C@@H](NC(=O)[C@@H](NC(=O)[C@H](CO)NC(=O)[C@H](Cc1ccc(O)cc1)NC(=O)[C@H](CC(=O)O)NC(=O)[C@H](CO)NC(=O)[C@@H](NC(=O)[C@H](Cc1ccccc1)NC(=O)[C@@H](NC(=O)CNC(=O)[C@H](CC(=O)O)NC(=O)[C@H](C)NC(=O)[C@@H](N)Cc1c[nH]cn1)[C@@H](C)O)[C@@H](C)CC)[C@@H](C)O)[C@@H](C)CC)[C@@H](C)CC)[C@@H](C)CC)[C@@H](C)O)[C@@H](C)CC)[C@@H](C)O)C(=O)O` [Co-agonist 33], in assay [1], the Emax at 10 µM was 100% and the “fold (fold change of native GIP)” value is 3.6 fold. The midpoint of the response in assay [1] (setting [3]), the EC50, lay at 0.316 nM. Moreover, in assay [2], the Emax at 10 µM came to 82% and the “fold (fold change of native GLP-2), GLP-2 receptor” value is reported as 11 fold. Besides, the EC50 in assay [2] (logEC50, GLP-2 receptor) is 12.9 nM.

On to `CCCCCCCCCCCC(=O)NCCCC[C@H](NC(=O)CNC(=O)[C@H](CCCCN)NC(=O)[C@@H](NC(=O)[C@H](CCC(N)=O)NC(=O)[C@@H](NC(=O)[C@H](CC(C)C)NC(=O)[C@H](Cc1c[nH]c2ccccc12)NC(=O)[C@H](CC(N)=O)NC(=O)[C@@H](NC(=O)[C@H](Cc1ccccc1)NC(=O)[C@H](CC(=O)O)NC(=O)[C@H](CCCNC(=N)N)NC(=O)[C@H](C)NC(=O)[C@H](C)NC(=O)[C@H](CC(C)C)NC(=O)[C@H](CC(N)=O)NC(=O)[C@H](CC(=O)O)NC(=O)[C@H](CC(C)C)NC(=O)[C@@H](NC(=O)[C@@H](NC(=O)[C@H](CO)NC(=O)[C@H](Cc1ccc(O)cc1)NC(=O)[C@H](CC(=O)O)NC(=O)[C@H](CO)NC(=O)[C@@H](NC(=O)[C@H](Cc1ccccc1)NC(=O)[C@@H](NC(=O)CNC(=O)[C@H](CC(=O)O)NC(=O)[C@H](C)NC(=O)[C@@H](N)Cc1c[nH]cn1)[C@@H](C)O)[C@@H](C)CC)[C@@H](C)O)[C@@H](C)CC)[C@@H](C)CC)[C@@H](C)CC)[C@@H](C)O)C(=O)N[C@@H](CCCCN)C(=O)O` [Co-agonist 35], for which, in assay [1], the maximum response (Emax) at 10 µM is 99% and the “fold (fold change of native GIP)” value was found to be 5.4 fold. Further, in assay [2], the maximal effect (Emax) at 10 µM stood at 68% and the “fold (fold change of native GLP-2), GLP-2 receptor” value is 1.9 fold. In assay [2] (logEC50, GLP-2 receptor), the 50% effective concentration (EC50) is 2.34 nM.
